In US5885814A, “Vaccine containing a serine protease” (priority 1993, dated 1999):
Where two headings read alike, the source gives them in different places. Square brackets hold non-standard residues; d marks the D form. Peptide text beside a SMILES is read from it. * marks the point of attachment. Sta = CC(C)C[C@H](N)[C@@H](O)CC(=O)O; Isovaleryl = CC(C)CC(=O)*

Legend:
[1] = system: DPP-like protease from F. hepatica E/S products; assay type: biochemical, Fasciola hepatica
Description: The assay mixture contained 200 μl of 20 μM substrate, 100 μl of enzyme solution and 900 μl of 50 mM Hepes, pH 6.8. The reaction was allowed to proceed at 37° C. and stopped by the addition of 200 μl of 1.7M acetic acid. The liberated AMC was measured in a fluorometer with excitation and emission wavelengths of 370 nm and 440 nm, respectively.
The effect of various metal ions on the hydrolytic activity of the enzyme was examined using both gly-pro-AMC and lys-ala-AMC as substrates in assays as described above.

Mammalian DPP4 = settings: J. Biol. Chem. 263 (1988), 6613-6618; cited from earlier work
Mammalian DPP2 = settings: J. Biol. Chem. 263 (1988), 6613-6618; cited from earlier work
[2] = gly-pro-AMC and lys-ala-AMC as substrates
[3] = substance 1 mM, substrate Gly-Pro-AMC
[4] = substance 5 mM, substrate Gly-Pro-AMC
[5] = concentration of 5 mM, gly-pro-AMC and lys-ala-AMC as substrates
[6] = substance 1 mM, substrate Lys-Ala-AMC
[7] = substance 5 mM, substrate Lys-Ala-AMC
[8] = substance 0.5 mM, substrate Gly-Pro-AMC
[9] = substance 0.5 mM, substrate Lys-Ala-AMC
[10] = substance 5 μg/ml, substrate Gly-Pro-AMC
[11] = substance 5 μg/ml, substrate Lys-Ala-AMC
[12] = substance 0.02 mM, substrate Gly-Pro-AMC
[13] = substance 0.02 mM, substrate Lys-Ala-AMC
[14] = substance 0.1 mM, substrate Gly-Pro-AMC
[15] = substance 0.1 mM, substrate Lys-Ala-AMC

| Molecule | effect on enzyme activity (in words) [1, 2] | Activity remaining (%) Gly-Pro [1, 3] | Activity remaining (%) Gly-Pro [1, 4] | Activity remaining (%) Lys-Ala [1, 6] | Activity remaining (%) Gly-Pro [1, 8] | Activity remaining (%) Lys-Ala [1, 9] | further results |
| --- | --- | --- | --- | --- | --- | --- | --- |
| N=C(N)c1ccccc1 [Benzamidine] | inhibits the activity | 77% | 35% |  |  |  | Activity remaining (%) Gly-Pro ([1]; substance 10 mM, substrate Gly-Pro-AMC): 23% |
| O=S(=O)(F)Cc1ccccc1 [PMSF, phenylmethyl sulfonyl fluoride] | inhibited |  |  |  |  |  | Activity remaining (%) Gly-Pro ([1]; substance 2 mM, substrate Gly-Pro-AMC): 2%; Activity remaining (%) Lys-Ala ([1]; substance 2 mM, substrate Lys-Ala-AMC): 3% |
| O=C(O)CN(CCN(CC(=O)O)CC(=O)O)CC(=O)O [EDTA] |  |  |  |  |  |  | effect on enzyme activity (in words) [1]: not inhibited; Activity remaining (%) Gly-Pro ([1]; pH 6.8, 2000 µM): 108%; Activity remaining (%) Lys-Ala ([1]; pH 6.8, 2000 µM): 121% |
| [Fe] [Fe, iron] |  | 6% | 2% | 5% |  |  | inhibition of enzyme activity [1, 5]: > 90%; Activity remaining (%) Lys-Ala [1, 7]: 2% |
| N[C@@H](CS)C(=O)O [Cysteine, cysteine] |  | 104% |  | 105% | 104% | 112% | activation of the enzyme by thiol activating agents [1]: no activation |
| aprotinin | not inhibited |  |  |  |  |  | Activity remaining (%) Gly-Pro [1, 10]: 109%; Activity remaining (%) Lys-Ala [1, 11]: 116% |
| [Pb] [Pb, lead] |  | 109% | 70% | 103% |  |  | Activity remaining (%) Lys-Ala [1, 7]: 82% |
| [Mg+2] [Mg, magnesium] | little effect on enzyme activity | 78% |  | 76% | 116% | 105% |  |
| mercury [Hg] |  | 7% | 5% | 4% |  |  | inhibition of enzyme activity [1, 5]: > 90%; Activity remaining (%) Lys-Ala [1, 7]: 2% |
| bacitracin | neither showed any inhibitory effect |  |  |  |  |  | Activity remaining (%) Gly-Pro [1, 12]: 100%; Activity remaining (%) Lys-Ala [1, 13]: 100%; Activity remaining (%) Gly-Pro [1, 14]: 100%; Activity remaining (%) Lys-Ala [1, 15]: 100%; inhibition of mammalian DPP4 (Mammalian DPP4): inhibits DPP4 only |
| [Cd] [Cd, cadmium] |  | 26% | 6% | 19% |  |  | inhibition of enzyme activity [1, 5]: > 90%; Activity remaining (%) Lys-Ala [1, 7]: 5% |
| [Ca+2] [Ca, calcium] | little effect on enzyme activity | 57% |  | 62% | 133% | 96% |  |
| O[C@H](CS)[C@H](O)CS (racemic) [DTT, dithiothreitol] |  | 90% |  | 62% | 77% | 61% | activation of the enzyme by thiol activating agents [1]: no activation |
| OCCS [2-Mercaptoethanol] |  | 87% |  | 75% |  |  | activation of the enzyme by thiol activating agents [1]: no activation |
| [Co] [Co, cobalt] |  | 20% | 4% | 28% |  |  | inhibition of enzyme activity [1, 5]: > 90%; Activity remaining (%) Lys-Ala [1, 7]: 6% |
| CC(C)CC(=O)N[C@H](C(=O)N[C@H](C(=O)N[C@@H](CC(C)C)[C@@H](O)CC(=O)N[C@@H](C)C(=O)N[C@@H](CC(C)C)[C@@H](O)CC(=O)O)C(C)C)C(C)C [Pepstatin] (Isovaleryl-VV[Sta]A[Sta]-OH) | not inhibited |  |  |  |  |  | Activity remaining (%) Gly-Pro [1, 10]: 108%; Activity remaining (%) Lys-Ala [1, 11]: 92% |
| [Mn+2] [Mn, manganese] | little effect on enzyme activity | 66% |  | 66% | 102% | 104% |  |
| [Zn] [Zn, zinc] |  | 3% |  | 14% | 80% | 37% | inhibition of enzyme activity ([1]; 1 mM concentration, gly-pro-AMC and lys-ala-AMC as substrates): > 85% |
| COc1ccc(C[C@H](N)C(=O)N[C@H]2[C@@H](O)[C@H](n3cnc4c(N(C)C)ncnc43)O[C@@H]2CO)cc1 [Puromycin, puromycin] | neither showed any inhibitory effect |  |  |  |  |  | Activity remaining (%) Gly-Pro [1, 12]: 100%; Activity remaining (%) Lys-Ala [1, 13]: 100%; Activity remaining (%) Gly-Pro [1, 14]: 100%; Activity remaining (%) Lys-Ala [1, 15]: 100%; inhibition of mammalian DPP2 (Mammalian DPP2): will inhibit DPP2 only |
